In publication PMC9446078 (Frontiers in Endocrinology, 2022):
Counter-ions that a name gives are not always drawn.

Assays:
red blood cells = assay: Inhibition of sorbitol formation in erythrocytes; assay type: cell-based, human; details: at IC50 concentration; compared with glucose-induced sorbitol levels (30 mM glucose, 3 h)
Method: The method in brief is discussed below. Five milliliters of blood sample was obtained from a healthy volunteer on overnight fasting in heparinized tubes. Red blood cells were separated by centrifugation and washed three times with isotonic saline at 4°C. The washed RBC were suspended in Kreb’s ringer bicarbonate buffer, pH 7.4 (preequilibrated with 5% CO2), and incubated at 37°C in the presence of 5% CO2 for 3 h under normal (3.0 mM) and high glucose (30 mM) conditions. […] At the end of the incubation period, RBC was homogenized in nine volumes of 0.8 M perchloric acid. The homogenate was centrifuged at 5,000 × g at 4°C for 10 min, and the pH of the supernatant was adjusted to 3.5 with 0.5 M potassium carbonate. The sorbitol content of the supernatant was measured by fluorometric method as described previously ([14]) using a spectrofluorometer (Jasco-FP-6500).

[1] = tested on: Ea.hy926 (human endothelial cells); assay: Scratch assay, endothelial cell migration under high glucose; assay type: cell-based
Method: High blood glucose levels hamper the migration of human fibroblasts, endothelial cells, and keratinocytes that impair wound healing ([16]–[20]). […] The detailed protocol and cytotoxicity results are provided in the Supplementary File. An actively growing culture of HFF-1 (human dermal fibroblasts), Ea.hy926 (human endothelial cells), and HaCaT (human keratinocytes) cell lines in Dulbecco’s modified Eagle’s medium containing 25 mM glucose supplemented with 10% fetal bovine serum was prepared. The cells were counted through a hemocytometer and were seeded at a density of 0.08 × 10^6 (HFF-1), 0.1 × 10^6 (Ea.hy926), and 0.2 × 10^6 (HaCaT Cells) cells/well/ml of culture medium. The plates were incubated overnight followed by serum starvation for 24 h. Scratch wounds were made in a confluent monolayer by making a straight scratch in the center of the well using a sterile 200-µl pipette microtip. […] The kinetics of migration of the cells in the wound was recorded by phase-contrast microscopy. The experiment was carried out in duplicate cells for each concentration.

[2] = MTT cytotoxicity in Ea.hy926; assay type: cell-based, human; details: human, Ea.hy926 cells, Ea.hy926, 24 h, read-out: % Cytotoxicity w.r.t. untreated cells
Method: (§1) 1. HaCaT, HFF-1 and Ea.hy926 cells were counted and plated in 96 well plates at the density corresponding to 5 X 10^3 cells/well/180 μl of cell growth medium.
(§2) 2. The above cells were then incubated overnight under growth conditions of 37°C, 95 % Humidity, 5 % CO2.so as to allow the cell recovery and exponential growth.
(§3) 3. Following overnight incubation, the above cells were serum starved in DMEM (containing 25 mM glucose) supplemented with […] for 24 h.
(§4) 5. The Ea.hy926 cells were then incubated for 24 h and HaCaT and HFF-1 cells were incubated for 48 h in CO2 incubator at 37 °C, 5 % CO2 and 95 % humidity.
(§5) 6. Following incubation, the plates were taken out and 20 μl of 5 mg/ml of MTT 3-(4,5-dimethythiazol-2-yl)-2,5-diphenyl tetrazolium bromide solution was added to all the wells followed by additional incubation for 3 h at 37 °C. The supernatant was aspirated and 150 μl of DMSO was added to each well to dissolve formazan crystals. The absorbance of each well was then read at 540 nm using Synergy HT micro plate reader.
(§6) 7. The percentage cytotoxicity at each tested concentration was calculated using the following formula:
(§7) % Cytotoxicity = (1-X/R)*100

Ea.hy926 cells = assay: MTT cytotoxicity in Ea.hy926; assay type: cell-based, human; details: Ea.hy926, all tested concentrations (0.01 to 1000 μM); <30% = non-cytotoxic
Method: as §1, §2, §3, §4, §5, §6, §7

Hanford miniature swine = assay: 12-week dermal toxicity study in miniature swine; assay type: in vivo
Method: A total of 40 Hanford miniature swine (20 male and 20 female) divided into four treatment groups were used for this study. A 12-week topical application of Galnobax 20% was carried out in the miniature swine wound healing model with twice-daily dosing. Six wounds (10 cm^2 each) of partial thickness were created on the dorsal region of all animals. Four wounds of each animal received twice-daily topical doses of either the vehicle or Galnobax gel, and the remaining two sites served as untreated comparative control wounds. Each group has four male and female miniature swine for the assessments and one each for the recovery period as given in Table 1 . Safety parameters in terms of ECG, clinical pathology, wound site evaluation, and toxicokinetics were performed during the study.

## COC(=O)CCc1ccc(OCC(O)CNC(C)C)cc1 (centres unmarked) [Esmolol hydrochloride]
Red blood cells
  inhibition of sorbitol formation in red blood cells: 59%
[1]; 1 and 10 µM, compared with control, high glucose
  migration of endothelial cells: enhanced the migration
[1]; 100 and 500 µM compared with 1 and 10 µM
  migration of endothelial cells: lower migration
[2]; 0.01 μM
  cytotoxicity at 24 h, 0.01 µM: 5.84%
[2]; 0.1 μM
  cytotoxicity at 24 h, 0.1 µM: 1.73%
[2]; 1 μM
  cytotoxicity at 24 h, 1 µM: 11.4%
[2]; 10 μM
  cytotoxicity at 24 h, 10 µM: 13.8%
[2]; 50 μM
  cytotoxicity at 24 h, 50 µM: 3.85%
[2]; 100 μM
  cytotoxicity at 24 h, 100 µM: 2.79%
[2]; 500 μM
  cytotoxicity at 24 h, 500 µM: 17.5%
[2]; 1000 μM
  cytotoxicity at 24 h, 1000 µM: 12.7%
Ea.hy926 cells
  cytotoxicity: non-cytotoxic
Hanford miniature swine; subcutaneously administered esmolol (30 mg/kg once or twice daily) plus topical Galnobax
  local reactions at the injection sites: moderate to severe local reactions
Hanford miniature swine; subcutaneously administered esmolol plus topical Galnobax, no histopathologic changes
  ovary weights: reduction in absolute and relative ovary weights
